Assay results: US7223792B2, “Cytotoxic annonaceous acetogenins from Annona muricata” (Advpharma Inc., priority 2001, dated 2007)
Converted amounts (≈) assume the structure as drawn. Read-outs that look alike come from different tables or passages of the source.

Legend:
Hep G2 = test: three days cytotoxicity bioassay against Hep G2; conditions: for Cytotoxicity IC50 Hep G2: human hepatoma cell line Hep G2, three days bioassay; for IC50: Homo sapiens, HepG2, 72 h, read-out: Cytotoxicity IC50 Hep G2
2,2,15 = test: three days cytotoxicity bioassay against 2,2,15; format: cell-based, human; conditions: for IC50: 72 h, read-out: Cytotoxicity IC50 2,2,15
Description: Adriamycin was used as a standard.

[1] = human hepatoma cell line 2,2,15, three days bioassay

Compound	Cytotoxicity IC50 Hep G2 (Hep G2)	Cytotoxicity IC50 2,2,15 (2,2,15; [1])	IC50 (Hep G2)	further results
CCCCCCCC(O)C(O)CC[C@H](O)[C@@H]1CC[C@H](CCCCCCCCCCCC[C@@H](O)CC2=C[C@H](C)OC2=O)O1 (some centres unmarked) [Muricin C (3), Muricin C]	0.499 µg/mL	0.00387 µg/mL		
CCCCCCCCCCCC[C@@H](O)[C@H]1CC[C@@H]([C@@H](O)CCCCC(=O)CCCCCCCC2=C[C@H](C)OC2=O)O1 [Corossolone (12), Corossolone, reference compound]			0.48 µg/mL (≈ 0.829 µM)	IC50 (2,2,15; Homo sapiens): 0.284 µg/mL (≈ 0.491 µM)
CCCCCC(O)C(O)CCCCCC[C@@H](O)[C@H]1CC[C@H](CCCCCCCCCC[C@@H](O)CC2=C[C@H](C)OC2=O)O1 (some centres unmarked) [Muricin A (1), Muricin A]	5.04 µg/mL	0.00513 µg/mL		times more potent than muricin B against Hep G2 (Hep G2; muricin A (4R-OH) compared with muricin B (4S-OH), Hep G2): 2.5 times
CCCCC(O)C(O)C/C=C\CC[C@H](O)[C@@H]1CC[C@@H](CCCCCCCCCCCC[C@@H](O)CC2=C[C@H](C)OC2=O)O1 (some centres unmarked) [Muricin F (6), Muricin F]	0.0428 µg/mL	0.00386 µg/mL		cytotoxicity compared with muricin C against Hep G2 (Hep G2; comparison in words, Hep G2): more cytotoxic than muricin C; cytotoxicity compared with muricin C against 2,2,15 (2,2,15; comparison in words, 2,2,15): more cytotoxic than muricin C
COc1cccc2c1C(=O)c1c(O)c3c(c(O)c1C2=O)C[C@@](O)(C(=O)CO)C[C@@H]3O[C@H]1C[C@H](N)[C@H](O)[C@H](C)O1 [Adriamycin, reference compound]			0.241 µg/mL (≈ 0.443 µM)	IC50 (2,2,15; [1]): 0.45 µg/mL (≈ 0.828 µM)
CCCCCCCCCCCCCC[C@@H](O)[C@H]1CC[C@H]([C@H](O)CC[C@H](O)CCCCCCCC2=C[C@H](C)OC2=O)O1 [Longifolicin (10), Longifolicin, reference compound]			0.000404 µg/mL (≈ 0.000695 µM)	IC50 (2,2,15; [1]): 0.0049 µg/mL (≈ 0.00844 µM)
CCCCCCCC(O)C(O)CC[C@H](O)[C@@H]1CC[C@@H](CCCCCCCCCC[C@@H](O)CC2=C[C@H](C)OC2=O)O1 (some centres unmarked) [Muricin D (4), Muricin D]	0.00066 µg/mL	0.048 µg/mL		
CCCCCC(O)C(O)CCCCCC[C@H](O)[C@@H]1CC[C@H](CCCCCCCCCC[C@H](O)CC2=C[C@H](C)OC2=O)O1 (some centres unmarked) [Muricin B (2), Muricin B]	1.78 µg/mL	0.00429 µg/mL		
Corossolin [Corossolin (11), reference compound]		0.234 µg/mL		
